{"source": "patent US11767330B2", "about": "“Citrate salt, pharmaceutical compositions, and methods of making and using the same” (Foghorn Therapeutics Inc., priority 2021, dated 2023)", "key": {"BRD9 [1]": {"target": "T1, BRD9 (Homo sapiens, UniProt Q9H8M2)", "T1 sequence (Q9H8M2 1-597)": "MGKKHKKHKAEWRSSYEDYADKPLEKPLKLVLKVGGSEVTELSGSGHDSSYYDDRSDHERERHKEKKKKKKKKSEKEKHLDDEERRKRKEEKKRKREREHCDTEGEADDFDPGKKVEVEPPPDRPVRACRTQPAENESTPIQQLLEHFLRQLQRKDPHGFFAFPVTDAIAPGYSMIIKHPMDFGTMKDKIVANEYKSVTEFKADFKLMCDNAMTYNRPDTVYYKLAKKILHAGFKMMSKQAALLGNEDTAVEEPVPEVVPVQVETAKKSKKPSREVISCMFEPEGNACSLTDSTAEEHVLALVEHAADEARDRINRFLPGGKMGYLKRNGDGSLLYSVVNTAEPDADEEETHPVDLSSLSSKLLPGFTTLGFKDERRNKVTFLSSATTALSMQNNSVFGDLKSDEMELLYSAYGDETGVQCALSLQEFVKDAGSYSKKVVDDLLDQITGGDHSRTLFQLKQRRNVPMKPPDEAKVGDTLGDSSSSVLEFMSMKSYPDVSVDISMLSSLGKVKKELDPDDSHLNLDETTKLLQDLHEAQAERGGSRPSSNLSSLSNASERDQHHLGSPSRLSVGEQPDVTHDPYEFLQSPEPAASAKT", "test": "Pharmacodynamic BRD9 level in SYO-1 xenograft, western blot (Example 14)", "type": "in vivo, mice", "design": "Tumors were lysed with 1×RIPA lysis buffer; from tissue; host or cells: SYO-1 xenograft tumours in BALB/c Nude mice", "conditions": "SYO-1 Xenograft model; for pharmacodynamic activity, BRD9 protein level by western blot: BALB/c Nude mice, single dose i.v. (Table 6)"}, "[2]": {"test": "Interconversion between Enantiomer 1 and Enantiomer 2 in cell medium (chiral LC/MS-MS)", "type": "physicochemical", "conditions": "0.2 μM dosed enantiomer, cell medium 37° C.", "procedure": "For the assessment of interconversion between Enantiomer 1 and Enantiomer 2 in cell medium, the following test was performed. […] At designated time point, aliquot (50 μL) was taken and processed by the addition of 150 μL of acetonitrile containing 0.1% formic acid and internal standard for LC/MS-MS analysis. Peak areas of both Enantiomer 1 and Enantiomer 2 were determined for each sample using a chiral specific analytical method."}, "BRD9 [3]": {"target": "T1, BRD9", "test": "BRD9 degradation western blot in ASKA cells (Example 13)", "type": "cell-based", "design": "degradation endogenous BRD9 protein in two synovial sarcoma cell lines; endogenous in cells; host or cells: ASKA synovial sarcoma cells", "conditions": "for DC50: read-out: Fitted DC50", "procedure": "[…] Cells were then harvested, washed with cold PBS, and frozen in cell pellets at −80° C. Lysates were prepared by resuspending thawed pellets in 1×RIPA Lysis and Extraction buffer (Thermo Fisher, Cat #89900) with 1× Halt™ Protease and Phosphatase Inhibitor Cocktail, EDTA-free (Thermo Fisher, Cat #78441) and 1:1000 dilution Pierce™ Universal Nuclease for Cell Lysis 25 ku (Thermo Fisher, Cat #88700). Lysates were incubated on ice for 10 minutes and then centrifuged in 4° C. at maximum speed (15,000 rpm) for 10 minutes. Samples were then analyzed for total protein using BCA protein quantification assay and diluted to 1 μg/μL with lysis buffer and 1× NuPAGE™ LDS Sample Buffer (4×) (Thermo Fisher, Cat #NP0007) and 1×DTT from 30× stock (Cell Signaling Technologies, Cat #14265S). Samples with 20-25 ug of total protein were loaded into 4-12% Bis-Tris Mini-Gel with 1×MES Running buffer and run at 150V for 45 minutes. Gels were transferred using Trans-Blot® Turbo™ Transfer System (semi-dry) at 25V for 10 minutes (High MW setting) on nitrocellulose blots. Blots were blocked in 5% milk in TBST for 1 hour and probed with BRD9 antibody (Bethyl Labs, Cat #A303-781A, 1:750 for SYO1, and Cell Signaling Technologies, Cat #71232S for ASKA) and beta-Actin antibody (Cell Signaling Technologies, Cat #3700, 1:2,000) overnight at 4° C. The next day, blots were washed in TBST 3× and probed with 1:5,000 IRDye® 680LT Goat anti-Rabbit IgG Secondary Antibody (LiCOR, Cat #926-68021) and 1:10,000 IRDye® 800CW Goat anti-Mouse IgG Secondary Antibody (LiCOR, Cat #926-32210) in LiCOR Odyssey® Blocking Buffer (TBS) for 1 hour at room temperature. Blots were washed in TBST 3× and scanned at […] wavelength using LiCOR Odyssey® CLx Imaging System. Western blot signal was quantified using same analyses program included in the same machine. BRD9 signal was quantified by normalizing to beta-actin signal and all samples were normalized to DMSO, set as 100% signal."}, "BRD9 [4]": {"target": "T1, BRD9", "test": "BRD9 degradation western blot in SYO-1 cells (Example 13)", "type": "cell-based", "design": "degradation endogenous BRD9 protein in two synovial sarcoma cell lines; endogenous in cells; host or cells: SYO1 (SYO-1) synovial sarcoma cells", "conditions": "for DC50: read-out: Fitted DC50; for degradation of endogenous BRD9 protein at early time point: two synovial sarcoma cell lines (SYO-1 and ASKA)", "procedure": "Synovial sarcoma cells were plated in 6-well plate at […] cells/well and treated with serial concentrations of BRD9 degrader (10 nM top concentration, diluted 1:3) the next day for two time points at 37° C. Cells were then harvested, washed with cold PBS, and frozen in cell pellets at −80° C. Lysates were prepared by resuspending thawed pellets in 1×RIPA Lysis and Extraction buffer (Thermo Fisher, Cat #89900) with 1× Halt™ Protease and Phosphatase Inhibitor Cocktail, EDTA-free (Thermo Fisher, Cat #78441) and 1:1000 dilution Pierce™ Universal Nuclease for Cell Lysis 25 ku (Thermo Fisher, Cat #88700). Lysates were incubated on ice for 10 minutes and then centrifuged in 4° C. at maximum speed (15,000 rpm) for 10 minutes. Samples were then analyzed for total protein using BCA protein quantification assay and diluted to 1 μg/μL with lysis buffer and 1× NuPAGE™ LDS Sample Buffer (4×) (Thermo Fisher, Cat #NP0007) and 1×DTT from 30× stock (Cell Signaling Technologies, Cat #14265S). Samples with 20-25 ug of total protein were loaded into 4-12% Bis-Tris Mini-Gel with 1×MES Running buffer and run at 150V for 45 minutes. Gels were transferred using Trans-Blot® Turbo™ Transfer System (semi-dry) at 25V for 10 minutes (High MW setting) on nitrocellulose blots. Blots were blocked in 5% milk in TBST for 1 hour and probed with BRD9 antibody (Bethyl Labs, Cat #A303-781A, 1:750 for SYO1, and Cell Signaling Technologies, Cat #71232S for ASKA) and beta-Actin antibody (Cell Signaling Technologies, Cat #3700, 1:2,000) overnight at 4° C. The next day, blots were washed in TBST 3× and probed with 1:5,000 IRDye® 680LT Goat anti-Rabbit IgG Secondary Antibody (LiCOR, Cat #926-68021) and 1:10,000 IRDye® 800CW Goat anti-Mouse IgG Secondary Antibody (LiCOR, Cat #926-32210) in LiCOR Odyssey® Blocking Buffer (TBS) for 1 hour at room temperature. Blots were washed in TBST 3× and scanned at […] wavelength using LiCOR Odyssey® CLx Imaging System. Western blot signal was quantified using same analyses program included in the same machine. BRD9 signal was quantified by normalizing to beta-actin signal and all samples were normalized to DMSO, set as 100% signal."}, "[5]": {"test_system": "non-synovial control cancer cell lines (RD, HCT116, and Calu6)", "test": "Growth of non-synovial control cancer cell lines, crystal violet day 14 (Example 3)", "type": "cell-based", "conditions": "daily treatment", "procedure": "(§1) Procedure: Cells were seeded into 6-well or 12-well plates and were treated daily with a BRD9 degrader (Compound 1), a bromo-domain BRD9 binder (Compound 2), E3 ligase binder (lenalidomide), DMSO, or staurosporin (positive control for cell killing), at indicated concentrations. The number of cells was optimized for each cell line. Growth media was refreshed every 5 days. By day 14, medium was removed, cells were washed with PBS, and stained using 500 μL of 0.005% (w/v) crystal violet solution in 25% (v/v) methanol for at least 1 hour at room temperature. Subsequently plates were scanned on an Odyssey CLx Imaging system."}, "[6]": {"test_system": "synovial sarcoma cell lines (SYO1, Yamato, HS-SY-II, and ASKA)", "test": "Growth of synovial sarcoma cell lines, IncuCyte confluency / crystal violet / colony imaging (Example 2)", "type": "cell-based", "conditions": "FIGS. 4, 5, 6", "procedure": "(§2) Cells were treated with DMSO or the BRD9 degrader, Compound 1, at indicated concentrations, and proliferation was monitored from day 7 to day 14 by measuring confluency overtime using an IncuCyte live cell analysis system (FIG. 4). Growth medium and compounds were refreshed every 3-4 days.\n(§3) Cells were seeded into 12-well plates and treated with DMSO, 1 μM BRD9 inhibitor, Compound 2 (also known as BI-7273, see Martin et al, J Med Chem. 59(10):4462-4475 (2016); see structure of compound 2 below), or 1 μM BRD9 degrader, Compound 1.\n(§4) The number of cells was optimized for each cell line. Growth medium and compounds were refreshed every 3-5 days. SYO1, Yamato, A549, 293T and HS-SY-II cells were fixed and stained at day 11. ASKA cells were fixed and stained at day 23. Staining was done by incubation with crystal violet solution (0.5 g Crystal Violet, 27 ml 37% Formaldehyde, 100 mL 10×PBS, 10 mL Methanol, 863 dH20 to 1 L) for 30 min followed by 3× washes with water and drying the plates for at least 24 h at room temperature. Subsequently plates were scanned on an Odyssey CLx Imaging system (FIG. 5).\n(§5) Cells were seeded into 96-well ultra-low cluster plate (Costar, #7007) in 200 μL complete media and treated at day 2 with DMSO, Staurosporin, or BRD9 degrader, Compound 1, at indicated doses (FIG. 2C). Media and compounds were changed every 5 d and cell colonies were imaged at day 14."}, "[7]": {"test_system": "synovial sarcoma cell lines (SYO1, HS-SY-II, and ASKA)", "test": "Growth of synovial sarcoma cell lines, crystal violet day 14 (Example 3)", "type": "cell-based", "conditions": "daily treatment", "procedure": "as §1"}, "[8]": {"test_system": "non-synovial control cancer cell lines (293T, A549, G401)", "test": "Growth of non-synovial control cancer cell lines (Example 2)", "type": "cell-based", "procedure": "as §2, §3, §4, §5"}}, "note": "“Also recorded” adds a separate entry of the source."}
{"smiles": "COc1cc(-c2cn(C)c(=O)c3cnc(N4CCC4)cc23)cc(OC)c1CN1CCC(CN2CCC3(CC2)CN(c2ccc4c(c2)C(=O)N([C@H]2CCC(=O)NC2=O)C4)C3)CC1", "note": "(single isomer, unassigned; enantiomer 1) [Enantiomer 1]", "values": [{"measurement": "pharmacodynamic activity, BRD9 protein level by western blot", "setting": "BRD9 [1]", "result": "inactive and did not degrade BRD9 protein"}, {"measurement": "% Enantiomer 2", "setting": "[2]; 2 h", "result": 12, "unit": "%"}, {"measurement": "% Enantiomer 2", "setting": "[2]; 6 h", "result": 30, "unit": "%"}, {"measurement": "DC50", "setting": "BRD9 [3]; 0.5 h", "result": "> 10000", "unit": "pM"}, {"measurement": "BRD9 degradation activity", "setting": "BRD9 [3]; 30 minutes, up to 10 μM", "result": "no discernable activity"}, {"measurement": "DC50", "setting": "BRD9 [3]; 2 h", "result": 380, "unit": "pM"}, {"measurement": "DC50", "setting": "BRD9 [4]; SYO-1, 1 h", "result": 2800, "unit": "pM"}, {"measurement": "DC50", "setting": "BRD9 [4]; SYO-1, 6 h", "result": 66, "unit": "pM"}, {"measurement": "degradation of endogenous BRD9 protein at early time point", "setting": "BRD9 [4]", "result": "largely inactive or with much reduced degradation potency"}]}
{"smiles": "COc1cc(-c2cn(C)c(=O)c3cnc(N4CCC4)cc23)cc(OC)c1CN1CCC(CN2CCC3(CC2)CN(c2ccc4c(c2)C(=O)N([C@@H]2CCC(=O)NC2=O)C4)C3)CC1", "note": "(single isomer, unassigned; enantiomer 2) [Enantiomer 2]", "values": [{"measurement": "pharmacodynamic activity, BRD9 protein level by western blot", "setting": "BRD9 [1]", "result": "significant activity; also recorded: equipotent to racemic compound D1"}, {"measurement": "duration of BRD9 degradation after a single dose", "setting": "BRD9 [1]; single dose i.v.", "result": "degraded BRD9 up to 72 hours after a single dose"}, {"measurement": "% Enantiomer 2", "setting": "[2]; 0 h", "result": 99, "unit": "%"}, {"measurement": "% Enantiomer 2", "setting": "[2]; 0.5 h", "result": 95, "unit": "%"}, {"measurement": "% Enantiomer 2", "setting": "[2]; 2 h", "result": 82, "unit": "%"}, {"measurement": "% Enantiomer 2", "setting": "[2]; 6 h", "result": 63, "unit": "%"}, {"measurement": "DC50", "setting": "BRD9 [3]; 0.5 h", "result": 340, "unit": "pM"}, {"measurement": "difference in DC50 between Enantiomer 1 and Enantiomer 2", "setting": "BRD9 [3]; 2 h", "result": "about 32 fold"}, {"measurement": "DC50", "setting": "BRD9 [3]; 2 h", "result": 12, "unit": "pM"}, {"measurement": "difference in DC50 between Enantiomer 1 and Enantiomer 2", "setting": "BRD9 [4]; SYO1, 6 h", "result": "ca. 3 fold"}, {"measurement": "BRD9 degradation compared to racemic compound D1", "setting": "BRD9 [4]; SYO-1, 1 or 6 hours (FIGS. 16 and 17)", "result": "slightly better than its racemic parent compound D1 in degrading BRD9 but overall comparable"}, {"measurement": "DC50", "setting": "BRD9 [4]; SYO-1, 1 h", "result": 92, "unit": "pM"}, {"measurement": "DC50", "setting": "BRD9 [4]; SYO-1, 6 h", "result": 23, "unit": "pM"}, {"measurement": "active enantiomer in degrading BRD9 in cells", "setting": "BRD9 [4]; overall conclusion of Example 13", "result": "active enantiomer"}, {"measurement": "degradation of endogenous BRD9 protein at early time point", "setting": "BRD9 [4]", "result": "much more potent"}]}
{"smiles": "COc1cc(-c2cn(C)c(=O)c3cnccc23)cc(OC)c1CN(C)C", "note": "[Compound 2]", "values": [{"measurement": "growth of non-synovial control cancer cell lines", "setting": "[5]", "result": "did not result in inhibition of the growth"}, {"measurement": "growth of synovial sarcoma cell lines", "setting": "[6]", "result": "inhibition of the growth of the cells"}, {"measurement": "growth of synovial sarcoma cell lines", "setting": "[7]", "result": "inhibition of the growth of the cells"}, {"measurement": "growth of non-synovial control cancer cell lines", "setting": "[8]", "result": "does not result in inhibition of the growth"}]}
